# Results as given in ChEMBL document CHEMBL3879901, “Substituted isoquinolin-1(2H)-ones, and methods of use thereof” (2012).
# The source made the active and inactive calls. No cut-off for these calls is given here.
# What was measured:
# Rattus norvegicus [1] = assay: Antiarthritic activity in collagen-induced Lewis rat arthritis model assessed as reduction in ankle joint swelling administered for 6 days post arthritis induction measured every day during compound dosing and day 7 of post last dose in presence of mTOR inhibitor rapamycin; format: functional
# PI3K p110 beta/p85 alpha = PI3K p110 beta/p85 alpha (Homo sapiens, UniProt P42338); assay: Inhibition of N-terminal His6-tagged recombinant full-length human p110beta/untagged recombinant full length p85alpha expressed in baculovirus infected Sf21 cells using phosphatidylinositol as substrate in presence of gamma-32P-ATP after 5 mins by thin layer chromatographic method
# Chain of PI3K p110 beta/p85 alpha (P27986 whole entry): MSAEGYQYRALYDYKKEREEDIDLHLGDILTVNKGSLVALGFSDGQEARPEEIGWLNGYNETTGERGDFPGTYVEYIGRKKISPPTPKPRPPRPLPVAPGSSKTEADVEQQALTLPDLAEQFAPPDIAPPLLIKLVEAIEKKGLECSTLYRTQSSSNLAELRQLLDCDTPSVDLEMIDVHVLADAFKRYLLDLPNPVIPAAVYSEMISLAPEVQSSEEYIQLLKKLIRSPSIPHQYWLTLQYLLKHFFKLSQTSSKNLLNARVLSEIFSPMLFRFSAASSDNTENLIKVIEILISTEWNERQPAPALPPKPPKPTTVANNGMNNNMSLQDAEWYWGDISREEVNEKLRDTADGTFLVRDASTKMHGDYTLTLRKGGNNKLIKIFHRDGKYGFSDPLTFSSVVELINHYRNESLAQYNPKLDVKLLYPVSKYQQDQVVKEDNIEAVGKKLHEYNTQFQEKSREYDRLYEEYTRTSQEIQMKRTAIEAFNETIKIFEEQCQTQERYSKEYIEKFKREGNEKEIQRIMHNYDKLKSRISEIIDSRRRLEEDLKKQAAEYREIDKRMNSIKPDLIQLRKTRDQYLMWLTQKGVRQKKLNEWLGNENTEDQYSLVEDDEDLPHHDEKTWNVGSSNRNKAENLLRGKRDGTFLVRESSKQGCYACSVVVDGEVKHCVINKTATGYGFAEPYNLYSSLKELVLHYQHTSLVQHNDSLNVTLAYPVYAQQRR
# Chain of PI3K p110 beta/p85 alpha (P42338 whole entry): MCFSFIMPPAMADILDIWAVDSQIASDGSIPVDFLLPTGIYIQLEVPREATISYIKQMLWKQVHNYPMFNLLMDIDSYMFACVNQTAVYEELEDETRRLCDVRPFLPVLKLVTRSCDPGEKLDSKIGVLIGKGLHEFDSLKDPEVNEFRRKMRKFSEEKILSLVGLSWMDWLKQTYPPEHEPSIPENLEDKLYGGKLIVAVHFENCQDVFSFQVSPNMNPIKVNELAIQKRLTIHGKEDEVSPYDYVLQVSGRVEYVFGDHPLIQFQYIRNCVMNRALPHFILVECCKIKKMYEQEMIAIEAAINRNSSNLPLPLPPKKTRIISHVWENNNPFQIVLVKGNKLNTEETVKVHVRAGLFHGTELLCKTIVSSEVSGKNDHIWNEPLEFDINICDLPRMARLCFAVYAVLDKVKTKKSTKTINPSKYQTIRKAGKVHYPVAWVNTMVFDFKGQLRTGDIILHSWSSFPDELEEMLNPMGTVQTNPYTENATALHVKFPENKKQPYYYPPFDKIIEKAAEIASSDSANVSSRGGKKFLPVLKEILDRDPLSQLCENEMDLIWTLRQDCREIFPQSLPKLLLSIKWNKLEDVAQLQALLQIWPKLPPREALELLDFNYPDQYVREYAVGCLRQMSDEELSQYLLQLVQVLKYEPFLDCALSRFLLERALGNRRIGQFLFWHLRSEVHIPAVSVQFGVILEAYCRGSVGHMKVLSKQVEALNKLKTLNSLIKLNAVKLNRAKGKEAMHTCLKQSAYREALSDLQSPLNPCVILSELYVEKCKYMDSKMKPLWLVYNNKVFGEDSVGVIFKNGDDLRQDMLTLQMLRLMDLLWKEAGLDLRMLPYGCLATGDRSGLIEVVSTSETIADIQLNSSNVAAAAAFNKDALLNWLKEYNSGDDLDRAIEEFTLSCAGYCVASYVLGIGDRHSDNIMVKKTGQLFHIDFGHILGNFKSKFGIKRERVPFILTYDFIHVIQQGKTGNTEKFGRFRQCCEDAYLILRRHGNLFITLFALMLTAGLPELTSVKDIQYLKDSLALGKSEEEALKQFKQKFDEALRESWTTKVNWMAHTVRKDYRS
# Rattus norvegicus [2] = assay: Antiarthritic activity in type 2 collagen-induced Lewis rat arthritis model assessed as reduction in serum anti-type 2 collagen levels at 60 mg/kg, po administered every 12 hrs for 16 days measured on day 17 of post last dose by ELISA relative to control; format: functional; set-up: scale not given: the % may be the effect or the level left
# Mus musculus [3] = assay: Reduction of TNP-Ficoll-induced T cell independent B cell activation in BDA-1 mouse assessed as decrease in IgG3 levels in serum at 10 mg/kg, po bid administered for 7 days by ELISA relative to control; format: functional
# Homo sapiens = species on record: Homo sapiens; assay: Inhibition of allergen-induced activation of basophilic granulocytes in human whole blood preincubated for 20 mins followed by allergen induction measured after 20 mins using sub micromolar range of compound by basotest assay; format: functional, tissue-based
# [4] = biological target: T1, Phosphatidylinositol 4,5-bisphosphate 3-kinase catalytic subunit delta isoform (Mus musculus) (UniProt O35904); assay: Inhibition of PI3Kdelta in LPS or anti-CD40/IL4-stimulated mouse B cells assessed as decrease in IgG response in presence of mTOR inhibitor rapamycin relative to vehicle-treated control; format: cell-based
# T1 sequence (whole entry): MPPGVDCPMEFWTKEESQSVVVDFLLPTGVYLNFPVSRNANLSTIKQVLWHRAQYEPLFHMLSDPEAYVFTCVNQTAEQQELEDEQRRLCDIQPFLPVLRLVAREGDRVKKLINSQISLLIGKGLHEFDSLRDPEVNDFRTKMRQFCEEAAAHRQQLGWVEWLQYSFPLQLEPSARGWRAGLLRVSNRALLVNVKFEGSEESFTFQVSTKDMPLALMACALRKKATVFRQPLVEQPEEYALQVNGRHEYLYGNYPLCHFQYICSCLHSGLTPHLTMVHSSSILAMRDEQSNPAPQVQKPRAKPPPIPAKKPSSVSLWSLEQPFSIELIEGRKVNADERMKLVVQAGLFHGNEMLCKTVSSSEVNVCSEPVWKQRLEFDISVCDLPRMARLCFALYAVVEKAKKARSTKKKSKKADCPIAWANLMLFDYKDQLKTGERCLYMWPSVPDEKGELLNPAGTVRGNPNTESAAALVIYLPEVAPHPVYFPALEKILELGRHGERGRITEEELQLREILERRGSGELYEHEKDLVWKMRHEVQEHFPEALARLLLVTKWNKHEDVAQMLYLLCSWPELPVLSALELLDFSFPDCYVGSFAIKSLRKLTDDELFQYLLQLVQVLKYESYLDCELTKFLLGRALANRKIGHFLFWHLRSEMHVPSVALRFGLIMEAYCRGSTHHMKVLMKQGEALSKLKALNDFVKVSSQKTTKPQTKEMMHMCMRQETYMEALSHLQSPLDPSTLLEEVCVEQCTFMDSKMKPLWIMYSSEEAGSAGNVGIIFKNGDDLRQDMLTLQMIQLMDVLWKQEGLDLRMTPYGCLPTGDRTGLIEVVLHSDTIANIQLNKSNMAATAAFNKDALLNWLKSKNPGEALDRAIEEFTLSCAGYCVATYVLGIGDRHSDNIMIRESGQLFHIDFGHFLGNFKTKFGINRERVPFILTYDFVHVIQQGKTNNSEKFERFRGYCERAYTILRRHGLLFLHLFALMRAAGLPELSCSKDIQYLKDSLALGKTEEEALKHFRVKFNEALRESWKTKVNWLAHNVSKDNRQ
# Rattus norvegicus [5] = assay: Antiarthritic activity in type 2 collagen-induced Lewis rat arthritis model assessed as reduction in bone resorption in ankle at 60 mg/kg, po administered every 12 hrs for 16 days measured on day 17 of post last dose by toluidine blue staining-based assay; format: functional, organism-based
# Rattus norvegicus [6] = assay: Antiarthritic activity in type 2 collagen-induced po dosed Lewis rat arthritis model assessed as reduction in cartilage damage in knee administered every 12 hrs for 16 days measured on day 17 of post last dose by toluidine blue staining-based assay; format: functional, organism-based
# Mus musculus [7] = species on record: Mus musculus; assay: Inhibition of TNP-Ficoll or TNP-KHL-stimulated IgE response in mouse in presence of mTOR inhibitor rapamycin by ELISA; format: functional
# Rattus norvegicus [8] = assay: Antiarthritic activity in complete freund's adjuvant-induced intrathecally dosed Lewis rat arthritis model assessed as reduction in paw volume administered on day 8 to 20 post arthritis induction measured every second day of compound dosing by water displacement plethysmometry; format: functional, organism-based
# [9] = Antiproliferative activity against Balb/c mouse splenic B cells preincubated for 30 mins followed by LPS or F(ab')2 donkey anti-mouse IgM and recombinant mouse IL4 stimulation measured after 72 hrs by Alamar Blue reduction assay; format: functional, cell-based
# Mus musculus [10] = assay: Reduction of TNP-Ficoll-induced T cell independent B cell activation in BDA-1 mouse assessed as decrease in IgG3 levels in serum at 3 mg/kg, po bid administered for 7 days by ELISA relative to control; format: functional
# Rattus norvegicus [11] = assay: Antiarthritic activity in type 2 collagen-induced Lewis rat arthritis model assessed as reduction in ankle diameter at 10 to 60 mg/kg, po administered every 12 hrs for 16 days measured on day 9 of compound dosing to day 17 of post last dose relative to vehicle-treated control; format: functional, organism-based
# [12] = biological target: T1, Phosphatidylinositol 4,5-bisphosphate 3-kinase catalytic subunit delta isoform (Mus musculus); assay: Inhibition of PI3Kdelta in LPS or anti-CD40/IL4-stimulated mouse B cells assessed as decrease in IgE response in presence of mTOR inhibitor rapamycin; format: cell-based
# Rattus norvegicus [13] = assay: Antiarthritic activity in type 2 collagen-induced po dosed Lewis rat arthritis model assessed as reduction in bone resorption in knee administered every 12 hrs for 16 days measured on day 17 of post last dose by toluidine blue staining-based assay; format: functional, organism-based
# [14] = Toxicity in complete freund's adjuvant-induced intrathecally dosed Lewis rat arthritis model assessed as body weight loss at 10 to 60 mg/kg, administered intrathecally on day 8 to 20 post arthritis induction measured every second day of compound dosing; format: organism-based; settings: in vivo, icv_or_intrathecal
# Rattus norvegicus [15] = assay: Antiarthritic activity in type 2 collagen-induced Lewis rat arthritis model assessed as reduction in ankle pannus at 60 mg/kg, po administered every 12 hrs for 16 days measured on day 17 of post last dose by toluidine blue staining-based assay; format: functional, organism-based
# Rattus norvegicus [16] = assay: Antiarthritic activity in type 2 collagen-induced po dosed Lewis rat arthritis model assessed as reduction in knee inflammation administered every 12 hrs for 16 days measured on day 17 of post last dose by toluidine blue staining-based assay; format: functional, organism-based
# Rattus norvegicus [17] = assay: Antiarthritic activity in type 2 collagen-induced Lewis rat arthritis model assessed as reduction in ankle diameter at 10 to 60 mg/kg, po bid administered for 6 days measured every day of compound dosing and day 7 of post last dose; format: functional, organism-based
# Rattus norvegicus [18] = assay: Antiarthritic activity in type 2 collagen-induced Lewis rat arthritis model assessed as reduction in ankle diameter at 10 to 60 mg/kg, po qd administered for 6 days measured every day of compound dosing and day 7 of post last dose; format: functional, organism-based
smiles,measurement,setting,value
CC(=O)Nc1nc2ccc(-c3nn(Cc4cc5cccc(C)c5c(=O)n4-c4ccccc4C)c4ncnc(N)c34)cc2s1,Activity,Rattus norvegicus [1],Active
same,IC50,PI3K p110 beta/p85 alpha,< 10 µM
same,Activity,Rattus norvegicus [2],86%
same,fold change (FC),Mus musculus [3],1.4
same,inhibition,Homo sapiens,Active
same,inhibition,[4],Active
same,Activity,Rattus norvegicus [5],Active
same,Activity,Rattus norvegicus [6],Dose-dependent effect
same,inhibition,Mus musculus [7],Active
same,Activity,Rattus norvegicus [8],Dose-dependent effect
same,EC50,[9],< 0.1 µM
same,fold change (FC),Mus musculus [10],0.8
same,Activity,Rattus norvegicus [11],Active
same,inhibition,[12],Active
same,Activity,Rattus norvegicus [13],Dose-dependent effect
same,Activity,[14],Toxic
same,Activity,Rattus norvegicus [15],Active
same,Activity,Rattus norvegicus [16],Dose-dependent effect
same,Activity,Rattus norvegicus [17],Active
same,Activity,Rattus norvegicus [18],Active
